Laboratory results reported in patent publication US20240270748A1 (Merck Patent GmbH, priority 2021, published 2024).

Test system: NCI-H226 human mesothelioma tumor cells
Test: NCI-H226 in vivo efficacy study
Settings: H2d Rag2 female mice, subcutaneous NCI-H226 tumors, po qd for 29 days
Protocol: NCI-H226 In Vivo Efficacy Study
7-9-week-old H2d Rag2 female mice (own breeding, Taconic-Denmark) were inoculated subcutaneously with 5×10^6 NCI-H226 human mesothelioma tumor cells in the right flank. Tumor growth and body weight was measured twice weekly using caliper. Tumor volume was calculated using the formula TV=L×W×W/2.
When tumor volume reached approximately 75-150 mm^3, animals were randomized (Day 0) into treatment groups (n=9-10/group) and treated perorally (po) once daily (qd) for 29 days with either vehicle (20% hydroxypropyl β-cyclodextrin in 50 mM PBS pH 7.4) or Compound no. 2. Compound no. 2 was tested at dosing levels of 1, 3, 10, 30, and 100 mg/kg, respectively. Results are depicted in FIG. 1 (tumor growth over time for vehicle group and each dosage group) and FIG. 2 (final tumor volume of vehicle group and each dosage group).
Statistical analysis of tumor volumes between treatment groups was done using repeated measures analysis of covariance (RM-ANCOVA) in a linear mixed effects model followed by least-squares means pairwise comparisons.
The animal experiment was performed under regulation of the German animal welfare act and in accordance with the EU laboratory animal directive for the area of animal experiments.

## Cn1cc2c3cc(C(=O)O)ccc3n(-c3ccc(C(F)(F)F)cc3)c2n1 [Example 2, 2-methyl-8-[4-(trifluoromethyl)phenyl]-2H,8H-pyrazolo[3,4-b]indole-5-carboxylic acid]
  dosing levels showing maximal inhibition of tumor growth: > 10 mg/kg
All tested dosing levels 1, 3, 10, 30, 100 mg/kg, p-value <0.001
  tumor growth inhibition compared to vehicle treated group: Significant tumor growth inhibition
